The text below walks through data of patent US20200095236A1, “ANTIBACTERIAL COMPOUNDS” (FORGE THERAPEUTICS, INC., priority 2017, published 2020).

Assay type in all cases: cell-based
One assay relates to E. coli. The experiment in a line: Bacterial susceptibility testing, MIC by broth microdilution (CLSI). The conditions noted are these: for MIC: Escherichia coli, read-out: E. coli MIC. The method, then: (§1) Minimal inhibitory concentrations (MIC) were determined by the broth microdilution method in accordance with the Clinical and Laboratory Standards Institute (CLSI) guidelines. In brief, organism suspensions were adjusted to a 0.5 McFarland standard to yield a final inoculum between 3×10^5 and 7×10^5 colony-forming units (CFU)/mL. Drug dilutions and inocula were made in sterile, cation adjusted Mueller-Hinton Broth (Beckton Dickinson). An inoculum volume of 100 μL was added to wells containing 100 μL of broth with 2-fold serial dilutions of drug. All inoculated microdilution trays were incubated in ambient air at 35° C. for 18-24 h. Following incubation, the lowest concentration of the drug that prevented visible growth (OD600 nm<0.05) was recorded as the MIC. Performance of the assay was monitored by the use of laboratory quality-control strains and levofloxacin, a compound with a defined MIC spectrum, in accordance with CLSI guidelines.

A further assay has as its system K. pneumoniae. The assay is described as above. The following applies: for MIC: Klebsiella pneumoniae, read-out: K. pneumoniae MIC. Here is the method: as §1
The next assay has as its system S. aureus. The description is as above. The following applies: for MIC: Staphylococcus aureus, read-out: S. aureus MIC. Here is the method:
as §1

In assay [1] the test system is TLR-4 activity of A. baumannii culture supernatants. The assay can be described thus: TLR4 assay: TLR4 activity of A. baumannii culture supernatants in HEK-Blue-hTLR4 cells. The following applies: Acinetobacter baumannii, HEK-Blue hTLR4, read-out: % TLR-4 activity. Here is the method:
The TLR4 assay measures activity of diluted filter-sterilized A. baumannii culture supernatants. The assay was performed as described in Lin et al, Mbio, 2012. Briefly, A. baumannii was passaged to mid log-phase in the presence of Forge LpxC inhibitors. Culture supernatants were harvested, filter-sterilized and diluted 1:1000. TLR4 activity of the supernatants was tested using HEK-Blue-hTLR4 cells (Invivogen) that carry NF-kB and AP-1 driven SEAP (secreted embryonic alkaline phosphatase) reporter gene.
Exemplary TLR4 assay data (% TLR-4 activity) for compounds in embodiments of the disclosure.

Setting [2] is: broth microdilution, 35° C., 18-24 h.

Converted amounts (≈) assume the structure as drawn. Like-named read-outs stand apart in the source and are kept apart here.

As for `O=C(Nc1cnoc1)C(Cc1ccc(C#Cc2ccc(CN3CCOCC3)cc2)cc1)c1nc[nH]c(=O)c1O` (centres unmarked) [Compound 4, 2-(5-hydroxy-6-oxo-1,6-dihydropyrimidin-4-yl)-N-(isoxazol-4-yl)-3-(4-((4-(morpholinomethyl)phenyl)ethynyl)phenyl) propanamide], the MIC in the assay with E. coli (setting [2]) is 1 to 8 µg/mL (≈ 1.9 to 15.2 µM); in the assay on K. pneumoniae (setting [2]), above 32 µg/mL; with S. aureus (setting [2]) it was above 32 µg/mL.

As to `CNC(=O)C(Cc1ccc(C#Cc2ccc(CN3CCOCC3)cc2)cc1)c1nc[nH]c(=O)c1O` (centres unmarked) [Compound 5, 2-(5-hydroxy-6-oxo-1,6-dihydropyrimidin-4-yl)-N-methyl-3-(4-((4-(morpholinomethyl)phenyl)ethynyl)phenyl) propanamide], the MIC in the assay on E. coli (setting [2]) is 1 to 8 µg/mL (≈ 2.12 to 16.9 µM); in the assay on K. pneumoniae (setting [2]) it was above 32 µg/mL; with S. aureus (setting [2]) it was above 32 µg/mL.

As for `C=CCNC(=O)C(Cc1ccc(C#Cc2ccc(CN3CCOCC3)cc2)cc1)c1nc[nH]c(=O)c1O` (centres unmarked) [Compound 6, N-allyl-2-(5-hydroxy-6-oxo-1,6-dihydropyrimidin-4-yl)-3-(4-((4-(morpholinomethyl)phenyl)ethynyl)phenyl)propanamide], the MIC is 8 to 32 µg/mL (≈ 16 to 64.2 µM) in the assay on E. coli (setting [2]), above 32 µg/mL with K. pneumoniae (setting [2]) and above 32 µg/mL in the assay on S. aureus (setting [2]).

For `O=C(NCCO)C(Cc1ccc(C#Cc2ccc(CN3CCOCC3)cc2)cc1)c1nc[nH]c(=O)c1O` (centres unmarked) [Compound 7, 2-(5-hydroxy-6-oxo-1,6-dihydropyrimidin-4-yl)-N-(2-hydroxyethyl)-3-(4-((4-(morpholinomethyl)phenyl)ethynyl)phenyl) propanamide], the MIC was 8 to 32 µg/mL (≈ 15.9 to 63.7 µM) in the assay on E. coli (setting [2]), above 32 µg/mL in the assay on K. pneumoniae (setting [2]) and above 32 µg/mL with S. aureus (setting [2]).

As for `O=C(Nc1ccn[nH]1)C(Cc1ccc(C#Cc2ccc(CN3CCOCC3)cc2)cc1)c1nc[nH]c(=O)c1O` (centres unmarked) [Compound 8, 2-(5-hydroxy-6-oxo-1,6-dihydropyrimidin-4-yl)-3-(4-((4-(morpholinomethyl)phenyl)ethynyl)phenyl)-N-(1H-pyrazol-5-yl)propanamide], the MIC in the assay on E. coli (setting [2]), in the assay with K. pneumoniae (setting [2]) and with S. aureus (setting [2]) was above 32 µg/mL in each case.

Regarding `O=C(Nc1cnc[nH]1)C(Cc1ccc(C#Cc2ccc(CN3CCOCC3)cc2)cc1)c1nc[nH]c(=O)c1O` (centres unmarked) [Compound 9, 2-(5-hydroxy-6-oxo-1,6-dihydropyrimidin-4-yl)-N-(1H-imidazol-5-yl)-3-(4-((4-(morpholinomethyl)phenyl)ethynyl)phenyl) propanamide], the minimum inhibitory concentration (MIC) in the assay with E. coli (setting [2]), in the assay on K. pneumoniae (setting [2]) and in the assay on S. aureus (setting [2]) was above 32 µg/mL each time.

For `NCCNC(=O)C(Cc1ccc(C#Cc2ccc(CN3CCOCC3)cc2)cc1)c1nc[nH]c(=O)c1O` (centres unmarked) [Compound 10, N-(2-aminoethyl)-2-(5-hydroxy-6-oxo-1,6-dihydropyrimidin-4-yl)-3-(4-((4-(morpholinomethyl)phenyl)ethynyl)phenyl) propanamide], the MIC was 1 to 8 µg/mL (≈ 1.99 to 15.9 µM) with E. coli (setting [2]), 8 to 32 µg/mL (≈ 15.9 to 63.8 µM) in the assay with K. pneumoniae (setting [2]) and above 32 µg/mL with S. aureus (setting [2]).

Regarding `O=C(Nc1nnn[nH]1)C(Cc1ccc(C#Cc2ccc(CN3CCOCC3)cc2)cc1)c1nc[nH]c(=O)c1O` (centres unmarked) [Compound 11, 2-(5-hydroxy-6-oxo-1,6-dihydropyrimidin-4-yl)-3-(4-((4-(morpholinomethyl)phenyl)ethynyl)phenyl)-N-(1H-tetrazol-5-yl)propanamide], the minimum inhibitory concentration (MIC) in the assay on E. coli (setting [2]), in the assay on K. pneumoniae (setting [2]) and in the assay on S. aureus (setting [2]) was above 32 µg/mL throughout.

For `O=C(CF)NCC(Cc1ccc(C#Cc2ccc(CN3CC4CCC(C3)O4)cc2)cc1)c1nc[nH]c(=O)c1O` (centres unmarked) [Compound 13, N-(3-(4-((4-((8-oxa-3-azabicyclo[3.2.1]octan-3-yl)methyl)phenyl)ethynyl)phenyl)-2-(5-hydroxy-6-oxo-1,6-dihydropyrimidin-4-yl)propyl)-2-fluoroacetamide], the minimum inhibitory concentration (MIC) in the assay with E. coli was 1 to 8 µg/mL (≈ 1.88 to 15.1 µM); in the assay on K. pneumoniae, 1 to 8 µg/mL (≈ 1.88 to 15.1 µM); in the assay on S. aureus, above 32 µg/mL.

In the case of `O=C(CF)NCC(Cc1ccc(C#Cc2ccc(CCN3CCOCC3)cc2)cc1)c1nc[nH]c(=O)c1O` (centres unmarked) [Compound 16, 2-fluoro-N-(2-(5-hydroxy-6-oxo-1,6-dihydropyrimidin-4-yl)-3-(4-((4-(2-morpholinoethyl)phenyl)ethynyl)phenyl)propyl)acetamide], the MIC was 1 to 8 µg/mL (≈ 1.93 to 15.4 µM) with E. coli, 8 to 32 µg/mL (≈ 15.4 to 61.7 µM) with K. pneumoniae and above 32 µg/mL with S. aureus.

For `O=C(CF)NCC(Cc1ccc(C#Cc2ccc(CCN3CCOCC3)cc2)cc1)c1nc[nH]c(=O)c1O` (centres unmarked) [Compound 17, 2-fluoro-N-(2-(5-hydroxy-6-oxo-1,6-dihydropyrimidin-4-yl)-3-(4-((4-(2-morpholinoethyl)phenyl)ethynyl)phenyl)propyl) acetamide], the “E. coli MIC” value with E. coli (setting [2]) was “B (B: >1 μg/mL to ≤8.0 μg/mL)”. Besides, the “K. pneumoniae MIC” value in the assay on K. pneumoniae (setting [2]) is reported as “C (C: >8.0 μg/mL to ≤32 μg/mL)”. Also, in the assay with S. aureus (setting [2]), the “S. aureus MIC” value is “D (D: >32 μg/mL)”.

Take `O=C(NCC(Cc1ccc(C#Cc2ccc(CN3CCOCC3)cc2)cc1)c1nc[nH]c(=O)c1O)C(F)(F)F` (centres unmarked) [Compound 18, 2,2,2-trifluoro-N-(2-(5-hydroxy-6-oxo-1,6-dihydropyrimidin-4-yl)-3-(4-((4-(morpholinomethyl)phenyl)ethynyl)phenyl)propyl)acetamide]: the minimal inhibitory concentration (MIC) with E. coli (setting [2]) was 1 to 8 µg/mL (≈ 1.85 to 14.8 µM); with K. pneumoniae (setting [2]), 1 to 8 µg/mL (≈ 1.85 to 14.8 µM); with S. aureus (setting [2]), above 32 µg/mL.

Turning to `CC(=O)NCC(Cc1ccc(C#Cc2ccc(CN3CCOCC3)cc2)cc1)c1nc[nH]c(=O)c1O` (centres unmarked) [Compound 19, N-(2-(5-hydroxy-6-oxo-1,6-dihydropyrimidin-4-yl)-3-(4-((4-(morpholinomethyl)phenyl)ethynyl)phenyl)propyl)acetamide], the minimum inhibitory concentration (MIC) was 1 to 8 µg/mL (≈ 2.06 to 16.4 µM) with E. coli (setting [2]), 8 to 32 µg/mL (≈ 16.4 to 65.8 µM) in the assay on K. pneumoniae (setting [2]) and above 32 µg/mL in the assay on S. aureus (setting [2]).

On to `C=CC(=O)NCC(Cc1ccc(C#Cc2ccc(CN3CCOCC3)cc2)cc1)c1nc[nH]c(=O)c1O` (centres unmarked) [Compound 20, N-(2-(5-hydroxy-6-oxo-1,6-dihydropyrimidin-4-yl)-3-(4-((4-(morpholinomethyl)phenyl)ethynyl)phenyl)propyl)acrylamide], for which the MIC in the assay with E. coli (setting [2]) was 1 to 8 µg/mL (≈ 2.01 to 16 µM); in the assay with K. pneumoniae (setting [2]), 8 to 32 µg/mL (≈ 16 to 64.2 µM); in the assay on S. aureus (setting [2]) it was above 32 µg/mL.

`O=c1[nH]cnc(C(CNCCF)Cc2ccc(C#Cc3ccc(CN4CCOCC4)cc3)cc2)c1O` (centres unmarked) [Compound 58, 6-(1-((2-fluoroethyl)amino)-3-(4-((4-(morpholinomethyl)phenyl)ethynyl)phenyl)propan-2-yl)-5-hydroxypyrimidin-4(3H)-one]: in assay [1], the activity at 4 µg/mL was below 20%, the activity at 8 µg/mL was below 20% and the activity at 16 µg/mL was below 20%.

Consider `CCCNCC(Cc1ccc(C#Cc2ccc(CN3CCOCC3)cc2)cc1)c1nc[nH]c(=O)c1O` (centres unmarked) [Compound 60, 5-hydroxy-6-(1-(4-((4-(morpholinomethyl)phenyl)ethynyl)phenyl)-3-(propylamino)propan-2-yl)pyrimidin-4(3H)-one], for which, in assay [1], the activity at 4 µg/mL is above 80%, the activity at 8 µg/mL is above 80% and the activity at 16 µg/mL is above 80%.

For the compound `N#CC1CCN(Cc2ccc(C#Cc3ccc(CC(C(=O)NCC(F)F)c4nc[nH]c(=O)c4O)cc3)cc2)C1` (centres unmarked) [Compound 102, 3-(4-((4-((3-cyanopyrrolidin-1-yl)methyl)phenyl)ethynyl)phenyl)-N-(2,2-difluoroethyl)-2-(5-hydroxy-6-oxo-1,6-dihydropyrimidin-4-yl)propanamide], in assay [1], the activity at 4 µg/mL was in the range of 20 to 50%, the activity at 8 µg/mL was below 20% and the activity at 16 µg/mL was below 20%.

Consider `O=c1[nH]cnc(C2(Cc3ccc(C#Cc4ccc(CN5CCOCC5)cc4)cc3)CC2)c1O` [Compound 246, 5-hydroxy-6-(1-(4-((4-(morpholinomethyl)phenyl)ethynyl)benzyl)cyclopropyl)pyrimidin-4(3H)-one], for which the minimal inhibitory concentration (MIC) in the assay on E. coli (setting [2]) and in the assay on K. pneumoniae (setting [2]) was above 32 µg/mL throughout.

Take `O=c1[nH]cnc(C2(Cc3ccc(C#Cc4ccc(CN[C@@H]5CCOC5)cc4)cc3)CC2)c1O` [Compound 247, (R)-5-hydroxy-6-(1-(4-((4-(((tetrahydrofuran-3-yl)amino)methyl)phenyl)ethynyl)benzyl)cyclopropyl)pyrimidin-4(3H)-one]: the minimum inhibitory concentration (MIC) lay in the range of 1 to 8 µg/mL (≈ 2.26 to 18.1 µM) in the assay with E. coli (setting [2]) and 8 to 32 µg/mL (≈ 18.1 to 72.5 µM) in the assay with K. pneumoniae (setting [2]).

As for `O=c1[nH]cnc(C(Cc2ccc(C#Cc3ccc(CN4CCOCC4)cc3)cc2)CN2CCOCC2)c1O` (centres unmarked) [Compound 249, 5-hydroxy-6-(1-morpholino-3-(4-((4-(morpholinomethyl)phenyl)ethynyl)phenyl)propan-2-yl)pyrimidin-4(3H)-one], the minimal inhibitory concentration (MIC) in the assay on E. coli (setting [2]) is below 1 µg/mL; in the assay with K. pneumoniae (setting [2]), above 32 µg/mL.

Regarding `O=c1[nH]cnc(C(CNCCc2cccnc2)Cc2ccc(C#Cc3ccc(CN4CCOCC4)cc3)cc2)c1O` (centres unmarked) [Compound 251, 5-hydroxy-6-(1-(4-((4-(morpholinomethyl)phenyl)ethynyl)phenyl)-3-((2-(pyridin-3-yl)ethyl)amino)propan-2-yl)pyrimidin-4(3H)-one], the MIC in the assay on E. coli (setting [2]) and in the assay on K. pneumoniae (setting [2]) was above 32 µg/mL each time.
